From PubChem BioAssay AID624435 (The Scripps Research Institute Molecular Screening Center, 2012)
Active and inactive are the calls of the source.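 How the source made its calls: active means inhibition of 30% or more at 100 µM, inferred from the inactive rule; inactive means inhibition below 30% at 100 µM.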

biological target: Serine/threonine-protein phosphatase 5 (Homo sapiens) (UniProt P53041); test: PP5 inhibitors on histone substrate, late-stage follow-up, orthogonal assay for PP5 inhibitor project, biochemical, radiolabel, round 5, powder samples (AID 624435); settings: purified PP5c, 33P-phosphohistone dephosphorylation, scintillation; at 50 µM; stronger effect = higher value
Sequence (P53041 whole entry, looked up): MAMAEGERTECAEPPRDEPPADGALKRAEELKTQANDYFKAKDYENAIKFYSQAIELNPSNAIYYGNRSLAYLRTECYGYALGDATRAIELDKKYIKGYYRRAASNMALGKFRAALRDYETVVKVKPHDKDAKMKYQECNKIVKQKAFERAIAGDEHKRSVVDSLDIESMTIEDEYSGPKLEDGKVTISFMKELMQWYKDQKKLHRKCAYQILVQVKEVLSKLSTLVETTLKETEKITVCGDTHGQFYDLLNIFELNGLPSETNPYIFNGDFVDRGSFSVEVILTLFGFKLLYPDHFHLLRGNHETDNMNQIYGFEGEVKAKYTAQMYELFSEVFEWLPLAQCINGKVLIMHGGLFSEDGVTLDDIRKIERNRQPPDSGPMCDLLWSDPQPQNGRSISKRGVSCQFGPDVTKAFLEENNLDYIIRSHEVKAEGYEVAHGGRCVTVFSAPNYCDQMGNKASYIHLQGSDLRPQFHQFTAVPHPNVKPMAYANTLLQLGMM

Row | inhibition | SMILES
1 | 67.5% | CC(C)Oc1ccccc1-c1n[nH]nc1C(=O)O
2 | 31.5% | O=C(O)c1n[nH]nc1-c1ccccn1
3 | -0.78% (inactive) | O=C(O)c1c(-c2ccccc2)nnc2ccccc12
4 | -5.7% (inactive) | O=C(O)c1cn[nH]c1-c1ccccc1
5 | -4.13% (inactive) | Cc1scc(C(=O)O)c1-c1ccccc1
6 | -4.55% (inactive) | O=C(O)c1cc(-c2ccccc2)n[nH]1
7 | -3.17% (inactive) | O=C(O)c1cccn1-c1ccccc1
8 | -1.07% (inactive) | O=C(O)c1n[nH]c2ccccc12
9 | 0.733% (inactive) | O=C(O)c1nnn(-c2ccccc2)c1-c1ccccc1
10 | -5.14% (inactive) | Cc1cccc(-c2noc(C)c2C(=O)O)c1
11 | 0.241% (inactive) | O=C(O)CCn1nnc2ccccc21
12 | 30.2% | CC(C)c1ccccc1-c1n[nH]nc1C(=O)O
13 | -2.5% (inactive) | O=C(O)c1cc2cccnc2[nH]1
14 | 1.67% (inactive) | COC(=O)c1n[nH]nc1-c1ccccc1
15 | 2.61% (inactive) | O=C(O)c1ncn[nH]1
16 | -1.84% (inactive) | O=C(O)c1nc2ncccn2n1
17 | 2.84% (inactive) | Cc1cccc(-n2cnc(C(=O)O)c2)c1

Row | inhibition | SMILES
18 | 0.116% (inactive) | O=C(O)c1ccccc1-c1nn[nH]n1
19 | -5.88% (inactive) | O=C(O)c1ccccc1-c1ccccc1
20 | 44.3% | CCc1ccccc1-c1n[nH]nc1C(=O)O
21 | -2.66% (inactive) | Cc1onc(C(=O)O)c1Cn1cccn1
22 | 0.388% (inactive) | O=C(O)Cn1nnc2ccccc21
23 | 2.2% (inactive) | O=C(O)c1n[nH]nc1-c1cccnc1
24 | -0.0487% (inactive) | O=C(O)c1cc2ccccn2n1
25 | -0.0127% (inactive) | O=C(O)c1cn[nH]n1
26 | -0.948% (inactive) | O=C(O)c1csc(Nc2ccccc2)n1
27 | 41.2% | O=C(O)c1n[nH]nc1-c1ccccc1-c1ccccc1
28 | -4.84% (inactive) | Cc1n[nH]nc1C(=O)O
29 | -2.04% (inactive) | O=C(O)c1c[nH]cc1-c1ccccc1
30 | -6.61% (inactive) | O=C(O)c1cc(-c2ccccc2)ncn1
31 | 39% | Cc1ccccc1-c1n[nH]nc1C(=O)O
32 | -5.1% (inactive) | O=C(O)c1cnn2ccccc12
33 | -1.61% (inactive) | O=C(O)c1nc(-n2cccc2)n[nH]1
34 | -7.51% (inactive) | O=C(O)c1ccccc1-n1cccc1

Row | SMILES | inhibition
35 | O=C(O)c1nn(Cc2ccccc2)nc1Cl | 0.71% (inactive)
36 | O=C(O)c1cn(Cc2ccccc2)nn1 | -4.42% (inactive)
